Measured values: EP0551518A1, “QUINOLINECARBOXYLIC ACID DERIVATIVE” (NIPPON SHINYAKU COMPANY, LIMITED, priority 1990, dated 1992)
In brackets after ≈: the same amount, converted by molar mass.

How the values were obtained:
Format in all cases: cell-based
[1] = tested on: Bacillus subtilis ATCC 6633; experiment: Determination of minimal inhibitory concentration of growth (MIC)-1, agar plate dilution method; details: ATCC6633; Bacillus subtilis ATCC 6633; agar plate dilution, 10⁶ CFU/ml, 37°C, 18 hours; read-out: MIC
How it was run: (§1)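 Following the Japan Society of Chemotherapy agar dilution standard, bacteria grown 18 h at 37°C in sensitivity bouillon are brought to 10⁶ CFU/ml and plated onto agar with test compound. Plates incubate 18 h at 37°C before MIC determination.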

[2] = tested on: Enterococcus faecalis ATCC 29212; experiment: as above; details: ATCC29212; Enterococcus faecalis ATCC 29212; agar plate dilution, 10⁶ CFU/ml, 37°C, 18 hours; read-out: MIC
How it was run: as §1

[3] = tested on: Escherichia coli KC-14; experiment: as above; details: Escherichia coli, KC14, 18 h, 10⁶ CFU/ml, 37°C, read-out: MIC
How it was run: as §1

[4] = tested on: Micrococcus luteus ATCC 9341; experiment: as above; details: ATCC9341; Micrococcus luteus ATCC 9341; agar plate dilution, 10⁶ CFU/ml, 37°C, 18 hours; read-out: MIC
How it was run: as §1

[5] = tested on: Proteus vulgaris HX-19; experiment: as above; details: Proteus vulgaris, HX19, 18 h, Proteus vulgaris HX-19; agar plate dilution, 10⁶ CFU/ml, 37°C, 18 hours; read-out: MIC
How it was run: as §1

[6] = tested on: Pseudomonas aeruginosa IFO 3445; experiment: as above; details: Pseudomonas aeruginosa, IFO3445, 18 h, Pseudomonas aeruginosa IFO 3445; agar plate dilution, 10⁶ CFU/ml, 37°C, 18 hours; read-out: MIC
How it was run: as §1

[7] = tested on: Staphylococcus aureus 209-P JC-1; experiment: as above; details: Staphylococcus aureus, 209P, 18 h, Staphylococcus aureus 209-P JC-1; agar plate dilution, 10⁶ CFU/ml, 37°C, 18 hours; read-out: MIC
How it was run: as §1

[8] = tested on: Staphylococcus aureus OWPH 1984 (MRSA); experiment: as above; details: Staphylococcus aureus, MRSA, 18 h, Staphylococcus aureus OWPH 1984 (MRSA); agar plate dilution, 10⁶ CFU/ml, 37°C, 18 hours; read-out: MIC
How it was run: as §1

[9] = tested on: Staphylococcus aureus OWPH 2125 (MRSA, PCA^r ); experiment: as above; details: Staphylococcus aureus, MRSA, 18 h, Staphylococcus aureus OWPH 2125 (MRSA, PCA^r); agar plate dilution, 10⁶ CFU/ml, 37°C, 18 hours; read-out: MIC
How it was run: as §1

[10] = tested on: Staphylococcus aureus Smith; experiment: as above; details: Staphylococcus aureus Smith; agar plate dilution, 10⁶ CFU/ml, 37°C, 18 hours; read-out: MIC
How it was run: as §1

[11] = tested on: Staphylococcus epider-midis IFO 12993; experiment: as above; details: Staphylococcus, IFO12993, 18 h, Staphylococcus epider-midis IFO 12993; agar plate dilution, 10⁶ CFU/ml, 37°C, 18 hours; read-out: MIC
How it was run: as §1

[12] = tested on: S. aureus OWPH 1770; experiment: Determination of minimal inhibitory concentration (MIC)-2, new quinolone-resistant MRSA; details: Staphylococcus aureus, OWPH1770, 18 h; S. aureus OWPH 1770, new quinolone-resistant and methicillin-resistant; same procedure as Test Example 1
Procedure: (§2) Method: MIC was determined by the agar plate dilution method in accordance with the standard protocol of Japan Society of Chemotherapy (cf. Chemotherapy 29 (1), 76-79, 1981). Each bacterial culture obtained by 18-hour incubation in a sensitivity assay bouillon medium at 37°C was diluted to 10⁶ CFU/ml with the same medium. Using a microplanter, a sensitivity assay agar medium containing the test drug was inoculated with the diluted culture and incubated at 37°C for 18 hours. The MIC value was then determined. As reference drugs, 6-fluoro-1-methyl-4-oxo-7-(1-piperazinyl)-4H-[1,3]thiazeto[3,2-a]quinoline-3-carboxylic acid (referred to as control), ciprofloxacin (CPFX) and ofloxacin (OFLX) were used.
(§3) The antibacterial activity of the compounds obtained in Example 4, Example 25 and Example 26 of the present invention was assayed by the same procedure as in Test Example 1. As reference drugs, 6-fluoro-1-methyl-4-oxo-7-(1-piperazinyl)-4H-[1,3]-thiazeto[3,2-a]quinoline-3-carboxylic acid (referred to as Control), norfloxacin (NFLX) and tosufloxacin (TFLX) were used.

[13] = tested on: S. aureus OWPH 1773; experiment: as above; details: Staphylococcus aureus, OWPH1773, 18 h; S. aureus OWPH 1773, new quinolone-resistant and methicillin-resistant; same procedure as Test Example 1
Procedure: as §2, §3

[14] = tested on: S. aureus OWPH 1786; experiment: as above; details: Staphylococcus aureus, OWPH1786, 18 h; S. aureus OWPH 1786, new quinolone-resistant and methicillin-resistant; same procedure as Test Example 1
Procedure: as §2, §3

[15] = tested on: S. aureus OWPH 1792; experiment: as above; details: Staphylococcus aureus, OWPH1792, 18 h; S. aureus OWPH 1792, new quinolone-resistant and methicillin-resistant; same procedure as Test Example 1
Procedure: as §2, §3

[16] = tested on: S. aureus OWPH 1793; experiment: as above; details: Staphylococcus aureus, OWPH1793, 18 h; S. aureus OWPH 1793, new quinolone-resistant and methicillin-resistant; same procedure as Test Example 1
Procedure: as §2, §3

[17] = tested on: S. aureus OWPH 1796; experiment: as above; details: Staphylococcus aureus, OWPH1796, 18 h; S. aureus OWPH 1796, new quinolone-resistant and methicillin-resistant; same procedure as Test Example 1
Procedure: as §2, §3

[18] = tested on: S. aureus OWPH 1799; experiment: as above; details: Staphylococcus aureus, OWPH1799, 18 h; S. aureus OWPH 1799, new quinolone-resistant and methicillin-resistant; same procedure as Test Example 1
Procedure: as §2, §3

[19] = tested on: S. aureus OWPH 2124; experiment: as above; details: Staphylococcus aureus, OWPH2124, 18 h; S. aureus OWPH 2124, new quinolone-resistant and methicillin-resistant; same procedure as Test Example 1
Procedure: as §2, §3

[20] = tested on: S. aureus OWPH 2127; experiment: as above; details: Staphylococcus aureus, OWPH2127, 18 h; S. aureus OWPH 2127, new quinolone-resistant and methicillin-resistant; same procedure as Test Example 1
Procedure: as §2, §3

[21] = tested on: S. aureus OWPH 2128; experiment: as above; details: Staphylococcus aureus, OWPH2128, 18 h; S. aureus OWPH 2128, new quinolone-resistant and methicillin-resistant; same procedure as Test Example 1
Procedure: as §2, §3

[22] = tested on: S. aureus OWPH 2133; experiment: as above; details: Staphylococcus aureus, OWPH2133, 18 h; S. aureus OWPH 2133, new quinolone-resistant and methicillin-resistant; same procedure as Test Example 1
Procedure: as §2, §3

[23] = tested on: S. aureus OWPH 2134; experiment: as above; details: Staphylococcus aureus, OWPH2134, 18 h; S. aureus OWPH 2134, new quinolone-resistant and methicillin-resistant; same procedure as Test Example 1
Procedure: as §2, §3

[24] = tested on: S. aureus Sh 2; experiment: as above; details: Staphylococcus aureus, SH2, 18 h; S. aureus Sh 2, new quinolone-resistant and methicillin-resistant; same procedure as Test Example 1
Procedure: as §2, §3

[25] = tested on: S. aureus Sh 44; experiment: as above; details: Staphylococcus aureus, SH44, 18 h; S. aureus Sh 44, new quinolone-resistant and methicillin-resistant; same procedure as Test Example 1
Procedure: as §2, §3

[26] = tested on: S. aureus Sh 47; experiment: as above; details: Staphylococcus aureus, SH47, 18 h; S. aureus Sh 47, new quinolone-resistant and methicillin-resistant; same procedure as Test Example 1
Procedure: as §2, §3

[27] = tested on: S. aureus Sh 54; experiment: as above; details: Staphylococcus aureus, SH54, 18 h; S. aureus Sh 54, new quinolone-resistant and methicillin-resistant; same procedure as Test Example 1
Procedure: as §2, §3

[28] = tested on: S. aureus Sh 8; experiment: as above; details: Staphylococcus aureus, SH8, 18 h; S. aureus Sh 8, new quinolone-resistant and methicillin-resistant; same procedure as Test Example 1
Procedure: as §2, §3

Structure (SMILES) | MIC [1] [ng/mL] | MIC [2] [µg/mL] | MIC [3] [µg/mL] | MIC [4] [µg/mL] | MIC [5] [µg/mL] | MIC [6] [µg/mL] | MIC [7] [µg/mL] | MIC [8] [µg/mL] | MIC [9] [µg/mL] | MIC [10] [µg/mL] | MIC [11] [µg/mL] | MIC [12] [µg/mL] | MIC [13] [µg/mL] | MIC [14] [µg/mL] | MIC [15] [µg/mL] | MIC [16] [µg/mL] | MIC [17] [µg/mL] | MIC [18] [µg/mL] | MIC [19] [µg/mL] | MIC [20] [µg/mL] | also measured
CC1Sc2c(C(=O)O)c(=O)c3cc(F)c(-c4ccc(N)cc4)c(F)c3n21 (centres unmarked) [Example 25, 7-(4-Aminophenyl)-6,8-difluoro-1-methyl-4-oxo-4H-[1,3]thiazeto[3,2-a]quinoline-3-carboxylic acid] | ≤ 6 | 0.05 (≈ 0.134 µM) | 0.05 (≈ 0.134 µM) | 0.2 (≈ 0.534 µM) | 0.025 (≈ 0.0668 µM) | 0.2 (≈ 0.534 µM) | ≤ 0.006 | 0.012 (≈ 0.0321 µM) | 0.012 (≈ 0.0321 µM) | ≤ 0.006 | 0.006 (≈ 0.016 µM) | 0.1 (≈ 0.267 µM) | 0.2 (≈ 0.534 µM) | 0.39 (≈ 1.04 µM) | 0.39 (≈ 1.04 µM) | 0.39 (≈ 1.04 µM) | 0.2 (≈ 0.534 µM) | 0.39 (≈ 1.04 µM) | 0.39 (≈ 1.04 µM) | 0.39 (≈ 1.04 µM) | MIC [21]: 0.39 µg/mL (≈ 1.04 µM); MIC [22]: 0.39 µg/mL (≈ 1.04 µM); MIC [23]: 0.2 µg/mL (≈ 0.534 µM); MIC [24]: 0.39 µg/mL (≈ 1.04 µM); MIC [25]: 0.2 µg/mL (≈ 0.534 µM); MIC [26]: 0.39 µg/mL (≈ 1.04 µM); MIC [27]: 0.2 µg/mL (≈ 0.534 µM); MIC [28]: 0.2 µg/mL (≈ 0.534 µM)
COc1c(-c2ccccc2)c(F)cc2c(=O)c(C(=O)O)c3n(c12)C(C)S3 (centres unmarked) [Example 26, 6-Fluoro-8-methoxy-1-methyl-4-oxo-7-phenyl-4H-[1,3]thiazeto[3,2-a]quinoline-3-carboxylic acid] | ≤ 6 | 0.2 (≈ 0.539 µM) | 0.78 (≈ 2.1 µM) | 0.78 (≈ 2.1 µM) | 0.39 (≈ 1.05 µM) | 3.13 (≈ 8.43 µM) | 0.025 (≈ 0.0673 µM) | 0.025 (≈ 0.0673 µM) | 0.1 (≈ 0.269 µM) | 0.012 (≈ 0.0323 µM) | 0.025 (≈ 0.0673 µM) | 0.39 (≈ 1.05 µM) | 0.39 (≈ 1.05 µM) | 0.78 (≈ 2.1 µM) | 1.56 (≈ 4.2 µM) | 1.56 (≈ 4.2 µM) | 0.78 (≈ 2.1 µM) | 1.56 (≈ 4.2 µM) | 0.39 (≈ 1.05 µM) | 1.56 (≈ 4.2 µM) | MIC [21]: 1.56 µg/mL (≈ 4.2 µM); MIC [22]: 1.56 µg/mL (≈ 4.2 µM); MIC [23]: 0.78 µg/mL (≈ 2.1 µM); MIC [24]: 1.56 µg/mL (≈ 4.2 µM); MIC [25]: 0.78 µg/mL (≈ 2.1 µM); MIC [26]: 0.78 µg/mL (≈ 2.1 µM); MIC [27]: 0.78 µg/mL (≈ 2.1 µM); MIC [28]: 0.78 µg/mL (≈ 2.1 µM)
